Measured values from patent US8846747B2, “Compounds and methods for altering lifespan of eukaryotic organisms” (University of Rochester, priority 2009, dated 2014).

How the values were obtained:
DeaD strain BB579 = assay: yeast Death of Daughters (DeaD) lifespan assay, reversal of nicotinamide (NAM) lifespan shortening; type: cell-based, S. cerevisiae (yeast); conditions: for average improvement, 250 nM to 1μM: fold improvement in DeaD lifespan (OD600 at 60 h normalized to no drug control), compound 250 nM to 1μM; for average improvement, 250 nM to 1μM / fold induction at 0.125 µM / average improvement, 0.5 to 100 nM: 0.75 mM NAM; for EC50 / fold induction at 0.125 µM: Saccharomyces cerevisiae; for EC50: BB579, read-out: C50 (concentration that yields half the maximal activity) by DeaD assay; for fold induction at 0.125 µM: BB579, compound 125 nM; for fold induction at 0.125 µM / average improvement, 0.5 to 100 nM: fold improvement in DeaD lifespan; for average improvement, 0.5 to 100 nM: compound 0.5 to 100 nM
Protocol: The C50 (50% maximal activity) is a measure of the efficacy of a compound as a LAC and is determined by quantifying the dose-response curve for each LAC by DeaD assay in the presence and absence of nicotinamide. The C50 is the concentration of LAC that yields half the maximal activity. Dose response curves will generally peak and then decline. The decline is most likely due to toxicity at higher LAC concentrations. The C50 is determined relative to the maximal lifespan extension (the peak value). C50 values are provided for C1-5.
The compounds listed in Table 1 of Example 3 were assessed for their anti-aging activities using the yeast Death of Daughters (DeaD) explicative lifespan assay. Specifically, the compounds were assessed for their capacity to reverse the lifespan shortening effect of exogenous nicotinamide (NAM), which is a known inhibitor of the anti-aging protein Sir2p (Anderson et al., 2003; Bitterman et al., 2002). These compounds were compared to the activities of known cluster 1 compounds, S3-5, and #3-11.
“Activity” here is defined herein as the fold improvement in DeaD lifespan in the presence of 0.75 mM NAM relative to lifespan in the absence of cluster 1 compounds, over a range of compound concentrations between 0.5 nm-1 μm. This “activity” value is a means of assessing the usefulness of a compound as a LAC. The assays were performed as follows. DeaD strain BB579 was grown overnight in a permissive (galactose-containing) medium to mid-log phase, and then diluted to an OD600 of 0.0001 in restrictive (glucose-containing) medium with 0.75 mM NAM and the compound to be tested. Cells were then incubated at 30° C. for 3 days, with shaking and OD600 measurement every 20 minutes. The OD600 reading after 60 hours in restrictive medium, normalized to the same measurement for the “no drug” control, was used as the number for comparison.
Five of the compounds with higher activity than S3-5 were selected for further study and were designated C1-1, C1-2, C1-3, C1-4, and C1-5 (see Table 2, Example 4). All data in FIGS. 1A(1)-(6) are from media containing 0.75 mM NAM. Note the different ranges of the X axes in FIGS. 1A(1)-(6)—very different C50 values for the compounds of the present invention compared the known C1 cluster compounds. […] All five had C50 values below 50 nM, while the C50 value for S3-5 was about 650 nM, and the C50 for S1-9 was about 350 nM.

[1] = tested on: strain FY839 (healthy wild-type); assay: Toxicity of compounds by yeast growth assay; type: cell-based; conditions: FY839, inset in FIG. 2
Protocol: The toxicity of compounds C1-1, C1-2, C1-3, C1-4, and C1-5 in yeast was assessed by determining their effects on growth of a wild-type yeast strain. FIG. 2 is a graphical representation of the toxicity data. The yeast used was strain FY839 (healthy wild-type) growing in SCD. At 12 hours all were in log phase. […] This concentration is many-fold higher than the effective concentrations of these compounds as assessed by DeaD lifespan assays.

RAW 264.7 cells = assay: LPS-induced TNF-α secretion from RAW 264.7 cells (ELISA); type: cell-based, murine; conditions: compound 1 micromolar, LPS 10 ng/ml for 6 hrs; FIG. 3
Protocol: FIG. 3. […] To obtain the data summarized in FIG. 3, RAW […] cells were incubated with Scrims (compounds of present invention) (1 uM), PI3K inhibitor positive control (LY-294002; 25 uM) or vehicle (DMSO) for 1 hr. LPS (10 ng/ml) was added to the medium. 6 hrs post LPS administration medium was collected and analyzed for TNFa levels using ELISA.
In vitro anti-inflammatory activity in RAW 264.7 cells (murine leukaemic monocyte macrophage cell line): Lipopolysaccharide (LPS)-induced secretion of cytokines from RAW cells is a recognized in vitro assay for anti-inflammatory drugs. The anti-inflammatory activities of C1-1, C1-2, C1-3, C1-4, and C1-5 in the RAW cell model. RAW cells exposed to LPS were incubated with each of the five molecules at 1 micromolar concentration. The PIK3 inhibitor LY-294002 was used at 25 micromolar as a positive control. […] LPS was administered at 10 ng/ml for 6-hrs. TNF-α levels were quantified by ELISA assay. Results are presented as % of control with standard deviations of three replicates.

| Compound | average improvement, 250 nM to 1μM (DeaD strain BB579) | fold induction at 0.125 µM (DeaD strain BB579) | also measured |
| --- | --- | --- | --- |
| CCCC(=O)C1C(=O)C(C(C)=O)C(=O)CC1CC(C)CCC (stereo not shown) [#3-11, reference compound] | 1.30 | – | – |
| CCC(=O)C1C(=O)CC(C2CCCCC2)CC1=O (stereo not shown) [SRI# 22788, 1,3-cyclohexanedione, 2-propanoyl-5-cyclohexyl-] | – | – | EC50 (DeaD strain BB579): < 50 nM; toxic effects on growth at concentrations below 1 μM [1]: little or no toxic effects on growth; reduction of secreted TNF-α relative to vehicle treated cells (RAW 264.7 cells): exhibited anti-inflammatory activity |
| CCC(=O)C1C(=O)CC(C2CC3C=CC2C3)CC1=O (stereo not shown) [SRI# 22965, 1,3-cyclohexanedione, 2-propanoyl-5-[bicyclo[2.2.1]hept-2-en-5-yl]-] | – | – | EC50 (DeaD strain BB579): < 50 nM; reduction of secreted TNF-α relative to vehicle treated cells (RAW 264.7 cells): exhibited anti-inflammatory activity |
| CCC(=O)C1C(=O)CC(C2CCCCC2)CC1=O (stereo not shown) [compound 22788] | 2.74 | 3.4 | average improvement, 0.5 to 100 nM (DeaD strain BB579): 1.75 |
| CCC(=O)C1C(=O)CC(c2c(F)cccc2Cl)CC1=O (stereo not shown) [compound 22789] | 2.62 | 2.61 | average improvement, 0.5 to 100 nM (DeaD strain BB579): 1.30 |
| CCC(=O)C1C(=O)CC(c2ccc(F)cc2)CC1=O (stereo not shown) [compound 22790] | 2.64 | 2.85 | average improvement, 0.5 to 100 nM (DeaD strain BB579): 1.37 |
| CCC(=O)C1C(=O)CC(c2ccco2)CC1=O (stereo not shown) [compound 22791] | 2.15 | 1.77 | – |
| COc1cc(OC)c(C2CC(=O)C(C(=O)C3CC3)C(=O)C2)c(OC)c1 (stereo not shown) [compound 22821] | 1.62 | 1.27 | – |
| Cc1ccc(C2CC(=O)C(C(=O)C3CC3)C(=O)C2)cc1 (stereo not shown) [compound 22824] | 1.42 | 1.32 | – |
| O=C1CC(c2ccc(F)cc2)CC(=O)C1C(=O)C1CC1 (stereo not shown) [compound 22835] | 2.21 | 2.48 | – |
| CC(C)C(=O)C1C(=O)CC(c2ccc(F)cc2)CC1=O (stereo not shown) [compound 22837] | 1.72 | – | – |
| CC(=O)C1C(=O)CC(c2ccc(Cl)cc2Cl)CC1=O (stereo not shown) [compound 22840] | 1.87 | 2.24 | – |
| O=C1CC(C2CCCCC2)CC(=O)C1C(=O)c1ccccc1 (stereo not shown) [compound 22845] | 2.11 | 1.99 | – |
| CC(=O)C1C(=O)CC(c2c(F)cccc2Cl)CC1=O (stereo not shown) [compound 22847] | 2.17 | 3.25 | – |
| CC(=O)C1C(=O)CC(c2ccco2)CC1=O (stereo not shown) [compound 22848] | 1.58 | – | – |
| CC(=O)C1C(=O)CC(c2ccc(F)cc2)CC1=O (stereo not shown) [compound 22850] | 1.59 | – | – |
| CC(=O)C1C(=O)CC(C2CC3C=CC2C3)CC1=O (stereo not shown) [compound 22856] | 2.18 | 3.18 | – |
| O=C1CC(c2ccccc2)CC(=O)C1C(=O)C1CC1 (stereo not shown) [compound 22878] | 2.11 | 2.62 | – |
| CC(C)C(=O)C1C(=O)CC(c2ccccc2)CC1=O (stereo not shown) [compound 22880] | 1.59 | 1.49 | – |
| O=C1CC(c2ccc(Cl)cc2Cl)CC(=O)C1C(=O)C1CC1 (stereo not shown) [compound 22889] | 1.64 | – | – |

| Compound | average improvement, 250 nM to 1μM (DeaD strain BB579) | fold induction at 0.125 µM (DeaD strain BB579) | also measured |
| --- | --- | --- | --- |
| CC(C)C(=O)C1C(=O)CC(c2ccc(Cl)cc2Cl)CC1=O (stereo not shown) [compound 22890] | 1.46 | – | – |
| O=C1CC(c2cccs2)CC(=O)C1C(=O)C1CC1 (stereo not shown) [compound 22897] | 1.85 | 1.25 | – |
| CC(C)C(=O)C1C(=O)CC(c2cccs2)CC1=O (stereo not shown) [compound 22898] | 1.37 | – | – |
| CCCCCCC1CC(=O)C(C(C)=O)C(=O)C1 (stereo not shown) [compound 22926] | 1.87 | 0.99 | – |
| CCCCCCC1CC(=O)C(C(=O)CC)C(=O)C1 (stereo not shown) [compound 22927] | 1.43 | – | – |
| CCC(=O)C1C(=O)CC(c2cccs2)CC1=O (stereo not shown) [compound 22930] | 2.33 | 2.21 | – |
| CC(=O)C1C(=O)CC(C(C)C)CC1=O (stereo not shown) [compound 22931] | 2.09 | 1.86 | – |
| CCC(=O)C1C(=O)CC(C(C)C)CC1=O (stereo not shown) [compound 22932] | 1.80 | 1.76 | – |
| CC(=O)C1C(=O)CC(c2cccs2)CC1=O (stereo not shown) [compound 22933] | 2.55 | 2.71 | average improvement, 0.5 to 100 nM (DeaD strain BB579): 1.70 |
| CC(=O)C1C(=O)CC(c2ccc3c(c2)OCO3)CC1=O (stereo not shown) [compound 22935] | 1.51 | – | – |
| CCC(=O)C1C(=O)CC(c2ccc3c(c2)OCO3)CC1=O (stereo not shown) [compound 22936] | 1.46 | – | – |
| CC(=O)C1C(=O)CC(c2cn(C)c3ccccc23)CC1=O (stereo not shown) [compound 22939] | 1.60 | – | – |
| CCC1CC(=O)C(C(C)=O)C(=O)C1 (stereo not shown) [compound 22941] | 1.62 | – | – |
| CCCCC1CC(=O)C(C(C)=O)C(=O)C1 (stereo not shown) [compound 22942] | 2.49 | 2.87 | average improvement, 0.5 to 100 nM (DeaD strain BB579): 1.71 |
| CCCCC1CC(=O)C(C(=O)CC)C(=O)C1 (stereo not shown) [compound 22943] | 2.33 | 2.79 | – |
| CCCCCC1CC(=O)C(C(C)=O)C(=O)C1 (stereo not shown) [compound 22944] | 2.28 | 2.72 | average improvement, 0.5 to 100 nM (DeaD strain BB579): 1.21 |
| CCCCCC1CC(=O)C(C(=O)CC)C(=O)C1 (stereo not shown) [compound 22945] | 2.54 | 1.96 | – |
| CCCC(=O)C1C(=O)CC(c2cn(C)c3ccccc23)CC1=O (stereo not shown) [compound 22947] | 1.64 | – | – |
| CCC(=O)C1C(=O)CC(C2CC3C=CC2C3)CC1=O (stereo not shown) [compound 22965] | 2.57 | 3.65 | average improvement, 0.5 to 100 nM (DeaD strain BB579): 1.72 |
